{"source": "patent US12311028B2", "about": "“Polymer-based macromolecular prodrugs” (The Children's Hospital of Philadelphia, priority 2018, dated 2025)", "key": {"[1]": {"test_system": "disseminated BE(2)C tumor deposits", "assay": "Therapeutic efficacy of [PEG-SN38-BG]8 in model of metastatic, refractory NB", "assay_type": "in vivo, mice", "conditions": "from day 25, 4 weeks 2x/week; prodrug 10 mg SN-38 per kg, irinotecan 15 mg/kg", "description": "Mice were injected through the tail vein with 10^6 luciferase-expressing BE(2)C cells. […] Tumor-associated signal was monitored by quantitative bioluminescence ((A), data shown as mean±SD). Representative images are included in (B)."}, "[2]": {"test_system": "orthotopic IMR-32 xenografts", "assay": "Therapeutic efficacy of PF108-(SN22)2 in orthotopic IMR-32 xenograft model", "assay_type": "in vivo, mice", "conditions": "PF108-(SN22)2 once a week; irinotecan 2x a week; 10 mg drug per kg", "description": "Mice were inoculated with 10^6 luciferase-expressing IMR-32 cells. […] Tumor-associated signal was monitored by quantitative bioluminescence. Quantitative data are shown as mean±SD."}, "[3]": {"test_system": "orthotopic BE(2)C xenografts", "assay": "Therapeutic efficacy of [PEG-SN38-BG]8 in orthotopic model of refractory NB", "assay_type": "in vivo, mice", "description": "FIG. 12: Therapeutic efficacy of [PEG-SN38-BG]8 in an orthotopic model of refractory, high-risk NB. Athymic nude (nu/nu) mice were inoculated with BE(2)C cells (10^6) stably expressing luciferase. Treatment with [PEG-SN38-BG]8 was administered intravenously at a dose equivalent to 10 mg/kg of SN-38 twice a week for 4 weeks. […] A group of mice administered with saline (no treatment) was used as a negative control. In an additional group, the prodrug was administered using the same regimen to animals allowed to reach a 10-fold larger tumor size (2.0 cm^3, ‘large tumors’). Tumor-associated signal was monitored by quantitative bioluminescence. Data presented graphically in (A) are expressed as mean±SD. The survival curves for respective animal groups over a 190-day period are shown in (B).\nFIG. 16: Therapeutic efficacy of [PEG-SN38-BG]8 in an orthotopic model of refractory, high-risk NB. Athymic nude (nu/nu) mice were inoculated with BE(2)C cells (10^6) stably expressing luciferase. Treatment with [PEG-SN38-BG]8 was administered intravenously at a dose equivalent to 10 mg/kg of SN-38 twice a week for 4 weeks. […] Groups of mice administered either with blank PEG or saline (no treatment) were used as negative controls (A). […] Tumor-associated signal was monitored by quantitative bioluminescence. Data are presented as mean±SD."}, "[4]": {"test_system": "spontaneous NB tumors, TH-MYCN transgenic mouse", "assay": "TH-MYCN transgenic mouse model of de novo NB", "assay_type": "in vivo, mice", "conditions": "once a week x4 weeks; PEG-[SN22]4 10 mg/kg/dose, CPT-11 15 mg/kg/dose", "protocol": "Mice were treated with saline (N=8), CPT-11 (15 mg/kg/dose; N=7), PEG-[SN38]4 (10 mg/kg/dose; N=6) or PEG-[SN22]4 (10 mg/kg/dose; N=6) IV by tail vein once a week×4 weeks. Treatments started when the mice were about 5 weeks old with a tumor size about 1-2 cm^3.\nPEG-[SN22]4 was also used to treat de novo NBs in a TH-MYCN transgenic mouse model. Spontaneous tumors develop in paraspinal ganglia or in the adrenal gland by 4-5 weeks in almost all mice with two copies of the transgene. Mice were divided into 4 groups once tumors became palpable (4-5 weeks): control-no treatment; CPT-11 treatment (15 mg/kg/dose), PEG-[SN38]4 (10 mg/kg/dose), or PEG-[SN22]4 (10 mg/kg/dose). Mice were treated once a week for 4 weeks. […] Mice were sacrificed when they became symptomatic from tumor burden.\nMice. Six-week-old Foxn1^nu/Foxn1^nu (JAX stock #007850) mice from Jackson Laboratories are used. Mice are maintained under humidity- and temperature-controlled conditions in a light/dark cycle that is set at 12-hour intervals. These mice are in a 129-SvJ background. Mice homozygous for the transgene generally develop tumors within 4-5 weeks."}, "[5]": {"test_system": "SKNBE(2)C orthotopic xenograft", "assay": "NB orthotopic xenograft model with chemo-resistant SKNBE(2)C", "assay_type": "in vivo, mice", "conditions": "once a week x4 weeks; prodrugs 10 mg/kg/dose, CPT-11 15 mg/kg/dose", "protocol": "Chemoresistant, luciferase transfected, SKNBE(2)C cells (107) were injected in the perineal fat pad of nude mice. Mice were divided into five groups: no treatment, or treatment with blank PEG, CPT-11, PEG-[SN38]4 or PEG-[SN22]4 (10 animals per group). Treatment started when tumors reached about 0.2 cm^3.\nMice were divided into five groups: no treatment, or treatment with blank PEG, CPT-11, PEG-[SN22]4 or PEG-[SN38]4 (10 animals per group). Treatment started when tumors reached about 0.2 cm^3.\nNext, PEG-[SN22]4, PEG-[SN38]4 and CPT-11 in a NB orthotopic xenograft mouse model with the chemo-resistant NB line SKNBE(2)C. BE(2)C cells were transfected with a luciferase expression vector to allow for bioluminescent imaging. Mice were treated once a week for 4 weeks with either PEG-[SN22]4 (10 mg/kg/dose), PEG-[SN38]4 (10 mg/kg/dose) or CPT-11 (15 mg/kg/dose).\nBE(2)C cells were transfected with a luciferase expression vector to allow for bioluminescent imaging. Mice were treated once a week for four weeks with either PEG-[SN22]4 (10 mg/kg/dose), PEG-[SN38]4 (10 mg/kg/dose) or CPT-11 (15 mg/kg/dose)."}, "[6]": {"test_system": "orthotopic BE(2)C xenograft tumors", "assay": "Therapeutic efficacy of NET-directed Pluronic F-108 tripartite prodrug in refractory NB model", "assay_type": "in vivo, mice", "conditions": "4 weeks 2x/week; constructs 10 mg SN-38 per kg, irinotecan 15 mg/kg", "description": "FIG. 21: Therapeutic efficacy of NET-directed delivery in a model of refractory NB. Mice were inoculated in the suprarenal fat pad with 10^6 luciferase-expressing BE(2)C cells. […] Alternatively, tumors were allowed to reach 2 cm^3 before starting therapy (B). Disease progression was monitored by quantitative bioluminescence. Tumor growth data are shown as mean±SD."}, "[7]": {"test_system": "orthotopic IMR-32 xenografts", "assay": "Therapeutic efficacy of [PEG-SN38-BG]8 in orthotopic IMR-32 xenograft model", "assay_type": "in vivo, mice", "conditions": "doses equivalent to 10 mg SN-38 per kg, 2x week over 4 weeks, from day 21", "description": "(§1) FIG. 15: Therapeutic efficacy of [PEG-SN38-BG]8 in an orthotopic xenograft model of chemo-naïve, MYCN-amplified NB. Mice were inoculated with 10^6 luciferase-expressing IMR-32 cells. […] Tumor-associated signal was monitored by quantitative bioluminescence. Data in (A) are shown as mean±SD. Representative bioluminescent images for each group are included in (B).\nas §1, with “17:” for “15:”, “Representative” for “Representative bioluminescent”, “images” for “images for each group”\nThe effectiveness of the tripartite prodrug strategy in providing sustained anticancer effects against aggressive NB tumors was shown experimentally in an orthotopic IMR-32 xenograft model (FIG. 15)."}, "[8]": {"test_system": "orthotopic BE(2)C xenografts", "assay_type": "in vivo", "conditions": "PF108-(SN22)2 10 mg/kg SN22 IV once a week x4; irinotecan 10 mg/kg SN38 twice a week", "description": "Saline or chemically unmodified Pluronic F-108 were used as negative controls."}, "[9]": {"test_system": "BE(2)C cells", "assay": "Antiproliferative effect of [PEG-SN38-BG]8 on BE(2)C with/without vorinostat or entinostat", "assay_type": "cell-based, human", "conditions": "6 hr exposure, 25-100 nM SN-38 equivalent, vorinostat 1.25-5.0 μM, 6 days post treatment", "protocol": "Cell growth was measured by bioluminescence. BE(2)C cell survival data at 6 days post treatment were analyzed for hyperadditivity by applying a model z=z0+A·x+B·y+C·[x·y] and determining the significance of the interaction term C.\nThe effect on cell growth kinetics was studied in comparison to free SN-38 or bipartite [PEG-SN38]8 lacking functionalization with BG (A). Cells were exposed for 4 hr to equivalent concentrations of the compounds, corresponding to 125 nM of SN-38. In an additional experiment (B), the response to treatment with [PEG-SN38-BG]8 was examined with/without a HDAC1-specific inhibitor, entinostat (0-5 μM). The doses of the prodrug were varied within a range equivalent to 0-100 nM SN-38, and the exposure duration was fixed at 6 hr. Cell growth was monitored by bioluminescence. The response is shown as % cell survival (mean±SD) at 6 days post-treatment. Experimental data were analyzed for hyperadditivity using a model z=z0+A·x+B·y+C·[x·y] and determining the significance of the interaction term C.\nTo evaluate the specific contribution of the targeting ligand incorporated in the prodrug structure, the cell growth inhibitory activity of [PEG-SN38-BG]8 on NET-expressing, chemoresistant NB cells was compared to that of a control molecule, [PEG-SN38]8, constructed analogously but without the BG moiety."}, "[10]": {"test_system": "BE(2)C cells", "conditions": "derived at relapse; cited from earlier work"}, "[11]": {"test_system": "BE(1) cells", "conditions": "derived at diagnosis; cited from earlier work"}, "[12]": {"test_system": "NLF and ABCG2-expressing clones", "assay": "Growth of NLF and ABCG2-expressing clones in presence of SN38 or SN22 (IncuCyte)", "assay_type": "cell-based, human", "description": "FIG. 7: ABCG2 expression and growth of NLF and transfected clones. (A) Western analysis was performed on NLF and three single-cell clones with an ABCG2 antibody (Santa Cruz), compared to an actin control. Clones 1, 2 and 3 had trace, low and, intermediate levels of ABCG2 expression, respectively. (B) Growth of NLF and ABCG2-expressing clones in the presence of SN38 or SN22 (50 ng/ml). Growth shown at day 4.\nTo evaluate susceptibility of SN38 and SN22 to ABCG2 efflux, an ABCG2-null NB cell line, NLF, was identified. NLF was transfected with an ABCG2 expression vector, and then selected single-cell clones with trace, low, and intermediate levels of ABCG2 expression (FIG. 7A). Next, the sensitivity of NLF and ABCG2-expressing clones to different concentrations of SN38 or SN22 and monitored growth continuously using IncuCyte® S3 Live-Cell Analysis System was assessed."}, "[13]": {"test_system": "BE(2)C cells", "assay": "Antiproliferative effect of PF68-SN38-BG vs PF68-SN38 and SN-38 on BE(2)C, 15-min exposure", "assay_type": "cell-based, human", "conditions": "SN-38 equivalent dose 0-25 nM", "description": "Blank Pluronic F-68 had no effect on cell growth."}, "[14]": {"test_system": "BE(2)C cells", "conditions": "free SN22 with or without unmodified Pluronic F-108"}}, "note": "“Also recorded” adds a separate entry of the source. Where two headings read alike, the source gives them in different places.", "data": [{"smiles": "CCc1c2c(nc3ccc(OC(=O)N4CCC(N5CCCCC5)CC4)cc13)-c1cc3c(c(=O)n1C2)COC(=O)[C@]3(O)CC", "note": "[irinotecan]", "values": [{"measurement": "disease progression (bioluminescence)", "setting": "[1]", "result": "no significant effect on the disease progression"}, {"measurement": "tumor response (bioluminescence)", "setting": "[2]", "result": "only a transient response"}, {"measurement": "tumor growth (bioluminescence), FIG. 16A", "setting": "[3]; 2x/week over 4 weeks, prodrugs 10 mg/kg SN-38, irinotecan 15 mg/kg", "result": "no antitumor effect"}, {"measurement": "tumor growth (bioluminescence), FIG. 12", "setting": "[3]; [PEG-SN38-BG]8 10 mg/kg SN-38 IV twice a week x4 weeks, irinotecan 15 mg/kg twice a week", "result": "marginal therapeutic effect and survival extension"}, {"measurement": "t50% survival (event-free)", "setting": "[3]; small tumors, twice a week x4 weeks", "result": 20, "unit": "days"}, {"measurement": "tumor response", "setting": "[4]", "result": "only slightly delayed"}, {"measurement": "tumor response during treatment", "setting": "[5]", "result": "had no effect; also recorded: had very little effect; also recorded: only slightly delayed"}, {"measurement": "tumor growth (bioluminescence)", "setting": "[6]", "result": "marginal effect"}, {"measurement": "tumor response (bioluminescence)", "setting": "[7]", "result": "tumors starting to regrow immediately after treatment cessation; also recorded: able to inhibit tumor growth for the duration of treatment"}, {"measurement": "tumor growth (bioluminescence)", "setting": "[8]", "result": "marginal antitumor effect"}]}, {"smiles": "CCc1c2c(nc3ccc(O)cc13)-c1cc3c(c(=O)n1C2)COC(=O)[C@]3(O)CC", "note": "[SN38, 7-ethyl-10-hydroxy-camptothecin]", "values": [{"measurement": "potentiation of antiproliferative effect by vorinostat", "setting": "[9]", "result": "moderately synergized"}, {"measurement": "concentration required for cell growth inhibition by 90% (therapeutic threshold)", "setting": "[10]", "result": 25, "unit": "ng/mL"}, {"measurement": "concentration required for cell growth inhibition by 90%", "setting": "[11]", "result": 2, "unit": "ng/mL"}, {"measurement": "sensitivity of clones with higher ABCG2 levels", "setting": "[12]", "result": "increasingly resistant"}, {"measurement": "BE(2)C cell growth inhibition", "setting": "[13]", "result": "marginally inhibited"}]}, {"smiles": "CCc1c2c(nc3ccccc13)-c1cc3c(c(=O)n1C2)COC(=O)[C@]3(O)CC", "note": "[SN22, 7-ethyl-camptothecin]", "values": [{"measurement": "sensitivity of clones with higher ABCG2 levels", "setting": "[12]; NLF clones with trace, low, intermediate ABCG2, 50 ng/ml, day 4", "result": "remained fully sensitive"}, {"measurement": "responsiveness of BE(2)C cells vs IMR-32", "setting": "[14]", "result": "strongly shifted in comparison to IMR-32 toward higher doses and longer exposure durations"}]}]}
